From patent US8486969B2, “Therapeutic compounds” (Allergan, Inc., priority 2007, dated 2013)

Tests used:
Type in all cases: cell-based
alpha2B receptor = target: T1, alpha2B receptor (Homo sapiens, UniProt P18089); experiment: RSAT assay (Receptor Selection and Amplification Technology), alpha2B; conditions: for EC50: RSAT, NIH-3T3 cells cotransfected with receptor and Gq/i5, ND = not determinable at concentrations less than 10 micromolar, read-out: Alpha 2B EC50; for Emax: maximal effect relative to standard full agonist brimonidine (UK14304), read-out: Alpha 2B intrinsic activity (IA), in parentheses
T1 construct: expressed in transfected cells; host or cells: NIH-3T3 cells
T1 sequence (P18089 1-450): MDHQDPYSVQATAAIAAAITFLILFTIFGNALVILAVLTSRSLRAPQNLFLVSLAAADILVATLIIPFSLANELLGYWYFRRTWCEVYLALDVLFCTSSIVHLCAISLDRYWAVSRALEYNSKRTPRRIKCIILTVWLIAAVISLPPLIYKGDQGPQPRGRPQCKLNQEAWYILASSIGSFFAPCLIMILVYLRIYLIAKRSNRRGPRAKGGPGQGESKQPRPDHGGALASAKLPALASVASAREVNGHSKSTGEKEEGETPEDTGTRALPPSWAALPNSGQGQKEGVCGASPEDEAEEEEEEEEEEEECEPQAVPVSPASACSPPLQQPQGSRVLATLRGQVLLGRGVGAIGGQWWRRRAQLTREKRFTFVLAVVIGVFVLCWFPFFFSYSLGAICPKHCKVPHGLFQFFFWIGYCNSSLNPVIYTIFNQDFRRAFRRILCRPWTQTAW
Protocol: (§1) Receptor Selection and Amplification Technology (RSAT) Assay
(§2) The RSAT assay measures a receptor-mediated loss of contact inhibition that results in selective proliferation of receptor-containing cells in a mixed population of confluent cells. The increase in cell number is assessed with an appropriate transfected marker gene such as β-galactosidase, the activity of which can be easily measured in a 96-well format. Receptors that activate the G protein, Gq, elicit this response. Alpha2 receptors, which normally couple to Gi, activate the RSAT response when coexpressed with a hybrid Gq protein that has a Gi receptor recognition domain, called Gq/i5.
NIH-3T3 cells are plated at a density of 2×10^6 cells in 15 cm dishes and maintained in Dulbecco's modified Eagle's medium supplemented with 10% calf serum. One day later, cells are cotransfected by calcium phosphate precipitation with mammalian expression plasmids encoding p-SV-β-galactosidase (5-10 μg), receptor (1-2 μg) and G protein (1-2 μg). 40 μg salmon sperm DNA may also be included in the transfection mixture. Fresh media is added on the following day and 1-2 days later, cells are harvested and frozen in 50 assay aliquots. Cells are thawed and 100 μl added to 100 μl aliquots of various concentrations of drugs in triplicate in 96-well dishes. Incubations continue 72-96 hr at 37° C. After washing with phosphate-buffered saline, β-galactosidase enzyme activity is determined by adding 200 μl of the chromogenic substrate (consisting of 3.5 mM o-nitrophenyl-β-D-galactopyranoside and 0.5% nonidet P-40 in phosphate buffered saline), incubating overnight at 30° C. and measuring optical density at 420 nm. The absorbance is a measure of enzyme activity, which depends on cell number and reflects a receptor-mediated cell proliferation. The efficacy or intrinsic activity is calculated as a ratio of the maximal effect of the drug to the maximal effect of a standard full agonist for each receptor subtype. Brimonidine, also called UK14304, the chemical structure of which is shown below, is used as the standard agonist for the alpha2A, alpha2B and alpha2C receptors. The EC50 is the concentration at which the drug effect is half of its maximal effect.
EC50 values are nanomolar. ND stands for “not determinable” at concentrations less than 10 micromolar. IA stands for “intrinsic activity.”

alpha2C receptor = target: T2, alpha2C receptor (Homo sapiens, UniProt P18825); experiment: RSAT assay (Receptor Selection and Amplification Technology), alpha2C; conditions: maximal effect relative to standard full agonist brimonidine (UK14304); read-out: Alpha 2C intrinsic activity (IA), in parentheses
T2 construct: expressed in transfected cells; host or cells: NIH-3T3 cells
T2 sequence (P18825 1-462): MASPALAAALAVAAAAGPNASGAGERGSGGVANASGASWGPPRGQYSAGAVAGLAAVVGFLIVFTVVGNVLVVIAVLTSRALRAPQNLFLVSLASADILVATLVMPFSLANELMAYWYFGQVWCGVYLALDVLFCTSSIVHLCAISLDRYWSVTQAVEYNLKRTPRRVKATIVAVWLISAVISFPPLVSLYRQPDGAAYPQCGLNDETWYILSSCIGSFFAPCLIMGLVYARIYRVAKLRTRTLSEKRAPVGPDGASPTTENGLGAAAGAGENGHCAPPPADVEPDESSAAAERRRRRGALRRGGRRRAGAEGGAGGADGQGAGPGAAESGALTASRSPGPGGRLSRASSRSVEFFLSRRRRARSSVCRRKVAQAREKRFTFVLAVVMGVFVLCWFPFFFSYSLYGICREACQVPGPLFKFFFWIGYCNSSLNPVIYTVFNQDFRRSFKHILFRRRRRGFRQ
Protocol: as §1, §2
(§3) NIH-3T3 cells are plated at a density of 2×10^6 cells in 15 cm dishes and maintained in Dulbecco's modified Eagle's medium supplemented with 10% calf serum. […] After washing with phosphate-buffered saline, β-galactosidase enzyme activity is determined by adding 200 μl of the chromogenic substrate (consisting of 3.5 mM o-nitrophenyl-β-D-galactopyranoside and 0.5% nonidet P-40 in phosphate buffered saline), incubating overnight at 30° C. and measuring optical density at 420 nm. The absorbance is a measure of enzyme activity, which depends on cell number and reflects a receptor-mediated cell proliferation. […]

alpha2A receptor = target: T3, alpha2A receptor (Homo sapiens, UniProt P08913); experiment: RSAT assay (Receptor Selection and Amplification Technology), alpha2A; conditions: read-out: Alpha 2A intrinsic activity (IA), in parentheses
T3 construct: expressed in transfected cells; host or cells: NIH-3T3 cells
T3 sequence (P08913 1-465): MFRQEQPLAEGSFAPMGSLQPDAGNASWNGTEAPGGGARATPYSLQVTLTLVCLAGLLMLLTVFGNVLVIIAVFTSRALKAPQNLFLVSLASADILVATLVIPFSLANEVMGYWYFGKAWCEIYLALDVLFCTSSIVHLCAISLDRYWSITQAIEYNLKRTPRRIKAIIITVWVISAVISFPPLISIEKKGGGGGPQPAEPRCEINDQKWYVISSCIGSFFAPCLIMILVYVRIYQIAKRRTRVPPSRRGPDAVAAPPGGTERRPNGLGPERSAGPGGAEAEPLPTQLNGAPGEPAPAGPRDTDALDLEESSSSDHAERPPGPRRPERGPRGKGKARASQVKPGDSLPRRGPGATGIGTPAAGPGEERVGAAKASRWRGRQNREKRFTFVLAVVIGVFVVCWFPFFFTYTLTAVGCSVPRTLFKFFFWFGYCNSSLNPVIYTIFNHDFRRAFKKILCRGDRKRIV
Protocol: as §1, §2, §3

Work on `c1cnc2c(c1)CCCC2NC1=NCCO1` (centres unmarked) yielded an EC50 (alpha2B receptor) of 545 nM, an Emax (alpha2B receptor) of 67% and an Emax (alpha2C receptor) of 22%. The Emax (alpha2A receptor) was 3%.
For `c1cnc2c(n1)CCCC2NC1=NCCO1` (centres unmarked), the EC50 (alpha2B receptor) was 271 nM, the Emax (alpha2B receptor) was 86% and the Emax (alpha2C receptor) was 27%. It also gave an Emax (alpha2A receptor) of 16%.
